Measurements published in PubChem BioAssay (NCI).
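Five concentrations, 48 hours, 96-well plates. GI50 is the concentration that inhibits growth by half. TGI: total growth inhibition.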

Key:
Assay in all cases: DTP human tumour cell line panel, 48 h
KM12 colon = test system: KM12 colon
U251 CNS = test system: U251 CNS
BT-549 breast = test system: BT-549 breast
SK-MEL-2 melanoma = test system: SK-MEL-2 melanoma
CAKI-1 renal = test system: CAKI-1 renal
OVCAR-5 ovarian = test system: OVCAR-5 ovarian
HL-60(TB) leukemia = test system: HL-60(TB) leukemia
HCT-116 colon = test system: HCT-116 colon

SMILES | GI50 (KM12 colon) | TGI (KM12 colon) | GI50 (U251 CNS) | TGI (U251 CNS) | GI50 (BT-549 breast) | TGI (BT-549 breast) | GI50 (SK-MEL-2 melanoma) | TGI (SK-MEL-2 melanoma) | GI50 (CAKI-1 renal) | TGI (CAKI-1 renal) | GI50 (OVCAR-5 ovarian) | TGI (OVCAR-5 ovarian) | GI50 (HL-60(TB) leukemia) | TGI (HL-60(TB) leukemia) | GI50 (HCT-116 colon) | TGI (HCT-116 colon)
COc1cc(-c2c(C#N)c(N)nc(N3CCOCC3)c2C#N)cc(OC)c1OC | > 100 µM | > 100 µM | > 100 µM | > 100 µM | > 100 µM | > 100 µM | > 100 µM | > 100 µM | > 100 µM | > 100 µM | 27.2 µM | > 100 µM | > 100 µM | > 100 µM | 86.5 µM | > 100 µM
O=C1OCC2=C1C(c1ccc(Cl)c(Cl)c1)c1cc3c(cc1N2CCO)CCC3 (configuration not stated) | 0.181 µM | 6.57 µM | 0.181 µM | 6.29 µM | 1.35 µM | 10.9 µM | 0.192 µM | 6.89 µM | 0.145 µM | 7.89 µM | 0.336 µM | 15.3 µM | 0.172 µM | 1.54 µM | 0.234 µM | 6.59 µM
CCN(CC)C1CCC(Nc2c(C(C)=O)cnc3ccc(-c4ccc(O)c(Cl)c4)cc23)CC1 (configuration not stated) | 0.432 µM | 4.28 µM | 1.16 µM | 17 µM | 1.91 µM | 5.89 µM | 4.15 µM | 28.2 µM | 0.376 µM | 10.8 µM | 2.4 µM | > 96.3 µM | 0.15 µM | 1.51 µM | 0.568 µM | 4.59 µM
CC(=O)OC1CC2C3CCC4C[C@@H](NC(=O)C=C(C)C)CC[C@]4(C)C3CC[C@]2(C)[C@H]1C(C)N(C)C (some centres not stated) | 2.55 µM | 10.4 µM | 1.75 µM | 5.79 µM | 4.21 µM | 11.1 µM | 2.31 µM | 4.58 µM | 3.71 µM | 13.2 µM | 3.46 µM | 10.4 µM | 2.23 µM | 5.46 µM | 0.854 µM | 2.22 µM
CC(C)(C)CC(N)=O | – | > 100 µM | – | > 100 µM | – | > 100 µM | – | > 100 µM | – | > 100 µM | – | > 100 µM | – | > 100 µM | – | > 100 µM
O=C(Nc1n[nH]c2nnc(-c3cccnc3)cc12)C1CC1 | 5.22 µM | > 20.1 µM | 1.06 µM | > 25 µM | 10.8 µM | > 25 µM | 21.8 µM | > 25 µM | 3.87 µM | > 25 µM | > 17.8 µM | > 25 µM | > 13.6 µM | > 22.6 µM | 4.47 µM | > 19.5 µM
O=c1oc2ccc(Br)cc2c(=O)n1-c1ccc(I)cc1F | 1.66 µM | 4.37 µM | 0.375 µM | 19.3 µM | 0.341 µM | 1.39 µM | 0.252 µM | 0.791 µM | 0.229 µM | 1.16 µM | 3.59 µM | > 100 µM | 0.375 µM | 1.99 µM | 0.396 µM | 1.53 µM
CN(Cc1cc(Cl)cc(Cl)c1O)Cc1c(O)ccc2ccccc12 | – | 42.8 µM | – | 30.4 µM | – | 32 µM | – | 35.8 µM | – | 33.8 µM | – | 52.5 µM | – | 57.4 µM | – | 58.7 µM
CN(C)c1ccc(/C=C/C2=[N+](C)c3ccccc3C2(C)C)cc1 | 0.328 µM | 5.85 µM | 0.353 µM | 12.6 µM | 0.467 µM | 12.6 µM | 1.61 µM | 16.8 µM | 4.69 µM | > 100 µM | 2.22 µM | 22.4 µM | 0.231 µM | 0.801 µM | 0.44 µM | 20.3 µM
CC(=O)Nc1ccc(COC(O)CN2CCCCC2)cc1[N+](=O)[O-] (configuration not stated) | – | > 100 µM | – | > 100 µM | – | > 100 µM | – | > 100 µM | – | > 100 µM | – | > 100 µM | – | > 100 µM | – | > 100 µM
CC1(C)[C@@H](OC(=O)CCC(=O)O)CC[C@]2(C)[C@H]3C(=O)C=C4[C@@H]5C[C@@](C)(C(=O)O)CC[C@]5(C)CC[C@@]4(C)[C@]3(C)CC[C@@H]12 | 54.9 µM | 84.1 µM | 53.2 µM | 77.4 µM | 51.1 µM | 83.3 µM | 52.1 µM | 67.9 µM | 61.6 µM | 157 µM | 83.2 µM | 125 µM | 54.6 µM | 73.6 µM | 51.8 µM | 75.6 µM
